Experimental findings from patent US20240368150A1 (Hoffmann-La Roche Inc., priority 2021, published 2024) are described below.

Where two headings read alike, the source gives them in different places.

Experiment [1] has as its system MV-3 cells. In words: T-cell - TCB - MV3 killing assay (MCSP-TCB, RFP object count by Incucyte). The class given is cell-based, human. The conditions noted are these: 5 d; for Emax / MSCP TCB killing MV-3 cells 5 d Emax: normalized: MCSP-TCB only = neutral control, 20 μM reference compound A1 = 100%; for Emax: read-out: MSCP TCB killing MV-3 cells 5 d Emax; for EC50: primary human T-cells + MCSP-TCB, MV-3 RFP cells, read-out: MSCP TCB killing MV-3 cells 5 d EC50.

In experiment [2] the target is hDGKalpha(1-735)-N-His (Homo sapiens (Human), UniProt P23743). The experiment is described as follows: DGKalpha ADP Glo assay (in vitro DGK inhibition). Format: biochemical. The conditions noted are these: DLG 125 uM, ATP 25 μM, DGK α 4 nM, 1 hour reaction. Summed up:
(§1)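 His-tagged human DGKα (4 nM) and DGKζ (2 nM) phosphorylate DLG presented in DLG/PS/PC liposomes using ATP; reaction run 1 hour. ADP formed measured by ADP-Glo luminescence. Compounds tested as 11-point 1:3 dose response […], 2% DMSO final.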
Background: In ADP-Glo the light output rises with the ADP produced.

The target in experiment [3] is hDGKzeta(1-928)-N-His (Homo sapiens (Human), UniProt Q13574). The experiment is described as follows: DGKzeta ADP Glo assay (in vitro DGK inhibition). Format: biochemical. The conditions noted are these: DLG 125 uM, ATP 50 μM, DGK ζ 2 nM, 1 hour reaction. In short, it runs like this: as §1
The subject of experiment [4] is primary human T-cells.
In experiment [5] the test system is primary human T-cells. In words: Proliferation assay after 5 days (CellTiter-Glo, CD3 stimulation; PBS counter screen). Format: cell-based. The conditions noted are these: CD3 stimulation; for Emax / Emax proliferation (% activation): 5 days, normalized to reference compound A1 as stimulator control = 100%, DMSO neutral control; for Emax: read-out: Emax proliferation (% activation); for EC50: primary human T-cells, CellTiter-Glo after 5 days, EC50 of fitted sigmoidal curve, read-out: Tcell Proliferation CD3 EC50. Summed up: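 Proliferation is measured 5 days post-treatment as ATP-dependent luminescence. Flags mark compounds that activated unstimulated cells or harmed viability.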
On the technique in general: In ATP-based viability assays light output follows the ATP content of the culture.

hDGKzeta(1-928)-N-His, sequence (Q13574 whole entry): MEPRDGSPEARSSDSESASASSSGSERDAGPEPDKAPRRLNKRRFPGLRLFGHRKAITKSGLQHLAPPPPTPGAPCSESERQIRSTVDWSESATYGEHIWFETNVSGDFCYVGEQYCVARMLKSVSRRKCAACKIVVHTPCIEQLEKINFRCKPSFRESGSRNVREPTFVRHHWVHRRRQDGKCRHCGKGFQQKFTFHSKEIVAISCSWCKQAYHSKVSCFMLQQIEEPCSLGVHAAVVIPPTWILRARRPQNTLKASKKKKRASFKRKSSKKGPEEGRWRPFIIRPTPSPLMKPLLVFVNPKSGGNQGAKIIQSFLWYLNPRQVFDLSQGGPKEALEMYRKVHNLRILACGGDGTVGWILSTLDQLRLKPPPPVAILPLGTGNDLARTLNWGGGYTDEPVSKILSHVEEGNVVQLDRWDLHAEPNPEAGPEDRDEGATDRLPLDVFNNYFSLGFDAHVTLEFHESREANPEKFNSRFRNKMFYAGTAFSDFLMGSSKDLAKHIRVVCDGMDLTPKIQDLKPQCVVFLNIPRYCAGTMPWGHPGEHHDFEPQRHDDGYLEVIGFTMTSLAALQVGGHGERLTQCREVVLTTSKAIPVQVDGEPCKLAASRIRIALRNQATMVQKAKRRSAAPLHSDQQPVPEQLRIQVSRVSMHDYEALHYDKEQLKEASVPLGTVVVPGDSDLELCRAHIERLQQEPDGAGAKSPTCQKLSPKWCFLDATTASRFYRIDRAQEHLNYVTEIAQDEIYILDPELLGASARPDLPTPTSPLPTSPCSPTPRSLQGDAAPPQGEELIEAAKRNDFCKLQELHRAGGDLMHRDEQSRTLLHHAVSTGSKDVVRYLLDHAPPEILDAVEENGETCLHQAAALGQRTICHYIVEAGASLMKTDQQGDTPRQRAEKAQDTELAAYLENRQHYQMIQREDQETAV
hDGKalpha(1-735)-N-His, sequence (P23743 whole entry): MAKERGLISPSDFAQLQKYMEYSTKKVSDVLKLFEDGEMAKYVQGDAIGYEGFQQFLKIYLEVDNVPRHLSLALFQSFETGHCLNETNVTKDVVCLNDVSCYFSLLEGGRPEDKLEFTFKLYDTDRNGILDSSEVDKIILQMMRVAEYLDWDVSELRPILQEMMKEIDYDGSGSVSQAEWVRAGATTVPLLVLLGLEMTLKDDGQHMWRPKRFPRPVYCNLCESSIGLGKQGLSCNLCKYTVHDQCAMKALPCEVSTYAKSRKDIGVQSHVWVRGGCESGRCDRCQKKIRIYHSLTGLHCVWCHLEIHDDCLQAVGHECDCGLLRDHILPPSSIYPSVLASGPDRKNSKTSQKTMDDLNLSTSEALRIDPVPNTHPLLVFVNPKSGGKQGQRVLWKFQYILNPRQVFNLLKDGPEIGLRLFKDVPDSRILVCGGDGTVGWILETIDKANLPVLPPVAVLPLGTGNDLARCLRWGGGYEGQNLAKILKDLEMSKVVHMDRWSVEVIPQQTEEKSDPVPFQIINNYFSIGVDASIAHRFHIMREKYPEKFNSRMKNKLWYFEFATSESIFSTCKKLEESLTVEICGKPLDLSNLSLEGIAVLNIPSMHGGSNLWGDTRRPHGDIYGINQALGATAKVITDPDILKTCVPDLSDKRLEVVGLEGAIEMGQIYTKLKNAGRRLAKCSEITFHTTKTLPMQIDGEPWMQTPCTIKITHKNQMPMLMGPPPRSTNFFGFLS

As for `N[C@H]1CS(=O)(=O)c2cc(F)c(-c3nnc(NC4CCCCC4)o3)cc2N(Cc2ccc(Cl)cc2)C1=O` [Example 466, (3R)-3-amino-5-[(4-chlorophenyl)methyl]-7-[5-(cyclohexylamino)-1,3,4-oxadiazol-2-yl]-8-fluoro-1,1-dioxo-2,3-dihydro-λ^6,5-benzothiazepin-4-one], the Emax in experiment [1] (Homo sapiens, MV-3, 120 h) amounted to 95%; in experiment [5] (Homo sapiens, T-cell, 120 h), 103%. The EC50 came out at 0.24 µM in experiment [1] (Homo sapiens, MV-3, 120 h); 0.458 µM in experiment [4]; 0.454 µM in experiment [5] (Homo sapiens, T-cell, 120 h). For the same molecule, the IC50 (usually the concentration at which inhibition is half-maximal) in experiment [2] came out at 2.09 µM; in experiment [3] it was 1.03 µM.
Turning to `N[C@H]1CS(=O)(=O)c2ccc(-c3nnc(CC(F)(F)F)o3)cc2N(Cc2ccc(OC(F)(F)F)cc2)C1=O` [Example 416, (3R)-3-amino-1,1-dioxo-7-[5-(2,2,2-trifluoroethyl)-1,3,4-oxadiazol-2-yl]-5-[[4-(trifluoromethoxy)phenyl]methyl]-2,3-dihydro-1λ^6,5-benzothiazepin-4-one], the Emax in experiment [1] (Homo sapiens, MV-3, 120 h) is 95%; in experiment [5] (Homo sapiens, T-cell, 120 h), 58%. Besides, the EC50 was found to be 0.53 µM in experiment [1] (Homo sapiens, MV-3, 120 h); 0.369 µM in experiment [4]; 0.402 µM in experiment [5] (Homo sapiens, T-cell, 120 h). Further, the IC50 amounted to 1.45 µM in experiment [2] and 1.68 µM in experiment [3].
On to `CC(C)(CO)c1nc(-c2cc3c(cc2F)S(=O)(=O)C[C@H](N)C(=O)N3Cc2ccc(Cl)cc2)no1` [Example 303, (3R)-3-amino-5-[(4-chlorophenyl)methyl]-8-fluoro-7-[5-(2-hydroxy-1,1-dimethyl-ethyl)-1,2,4-oxadiazol-3-yl]-1,1-dioxo-2,3-dihydro-1λ^6,5-benzothiazepin-4-one], for which the Emax is 92% in experiment [1] (Homo sapiens, MV-3, 120 h) and 140% in experiment [5] (Homo sapiens, T-cell, 120 h). The EC50 in experiment [1] (Homo sapiens, MV-3, 120 h) is 0.4 µM; in experiment [4] it was 1.07 µM; in experiment [5] (Homo sapiens, T-cell, 120 h), 0.605 µM. For the same molecule, the IC50 is 0.301 µM in experiment [2] and 0.251 µM in experiment [3].
Regarding `CC(C)(C)c1nnc(-c2cc3c(cc2F)S(=N)(=O)C[C@H](N)C(=O)N3Cc2ccc(OC(F)(F)F)cc2)o1` (single isomer, unassigned) [Example 517], the Emax in experiment [1] (Homo sapiens, MV-3, 120 h) was found to be 79%. In addition, the EC50 in experiment [1] came to 0.33 µM; in experiment [4], 0.299 µM; in experiment [5] it was 2.93 µM. The IC50 in experiment [2] was 0.272 µM; in experiment [3] it was 0.316 µM. For the same molecule, the “Emax proliferation (% activation)” value in experiment [5] is 90 % activation.
In the case of `COC(=O)N1CC2CC(c3nnc(-c4cc5c(cc4F)S(=O)(=O)C[C@H](N)C(=O)N5Cc4ccc(Cl)cc4)o3)(C2)C1` [Example 184, methyl 1-[5-[(3R)-3-amino-5-[(4-chlorophenyl)methyl]-8-fluoro-1,1,4-trioxo-2,3-dihydro-1λ^6,5-benzothiazepin-7-yl]-1,3,4-oxadiazol-2-yl]-3-azabicyclo[3.1.1]heptane-3-carboxylate], the Emax worked out at 79% in experiment [1] (Homo sapiens, MV-3, 120 h) and 77% in experiment [5] (Homo sapiens, T-cell, 120 h). The EC50 in experiment [1] (Homo sapiens, MV-3, 120 h) came out at 0.09 µM; in experiment [4], 0.109 µM; in experiment [5] (Homo sapiens, T-cell, 120 h), 0.0242 µM. Further, the results for the half-inhibitory concentration (IC50) in experiment [2] and in experiment [3] were 0.244 µM and 0.29 µM, respectively.
Regarding `N[C@H]1CS(=O)(=O)c2ccc(-c3nnc(C4(N)CCCCC4)o3)cc2N(Cc2ccc(OC(F)(F)F)cc2)C1=O` [Example 417, (3R)-3-amino-7-[5-(1-aminocyclohexyl)-1,3,4-oxadiazol-2-yl]-1,1-dioxo-5-[[4-(trifluoromethoxy)phenyl]methyl]-2,3-dihydro-1λ^6,5-benzothiazepin-4-one], the Emax in experiment [1] (Homo sapiens, MV-3, 120 h) came out at 182%; in experiment [5] (Homo sapiens, T-cell, 120 h) it was 70%. Also, the EC50 in experiment [1] (Homo sapiens, MV-3, 120 h) is 1.86 µM; in experiment [4] it was 0.328 µM; in experiment [5] (Homo sapiens, T-cell, 120 h) it was 0.337 µM. Besides, the IC50 turned out to be 6.41 µM in experiment [2] and 2.11 µM in experiment [3].
For `CC(C)(C)c1nnc(-c2cc3c(cc2F)[S+]([O-])C[C@H](N)C(=O)N3Cc2ccc(OC(F)(F)F)cc2)o1` (single isomer, unassigned; epimer a) [Example 452], the “MSCP TCB killing MV-3 cells 5 d Emax” value in experiment [1] is recorded as 81%. Moreover, the EC50 in experiment [1] turned out to be 0.23 µM; in experiment [4], 0.121 µM; in experiment [5] (Homo sapiens, T-cell, 120 h) it was 0.468 µM. The IC50 in experiment [2] was found to be 0.34 µM; in experiment [3], 0.4 µM. The “Emax proliferation (% activation)” value in experiment [5] came to 165 % activation.
As for `N[C@H]1CS(=O)(=O)c2ccc(-c3nnc(C4(C5CC5)CCCO4)o3)cc2N(Cc2ccc(Cl)cc2)C1=O` (stereo partly drawn) [Example 381, (3R)-3-amino-5-[(4-chlorophenyl)methyl]-7-[5-(2-cyclopropyltetrahydrofuran-2-yl)-1,3,4-oxadiazol-2-yl]-1,1-dioxo-2,3-dihydro-1λ^6,5-benzothiazepin-4-one], the Emax in experiment [1] (Homo sapiens, MV-3, 120 h) worked out at 101%; in experiment [5] (Homo sapiens, T-cell, 120 h), 119%. The EC50 came out at 0.16 µM in experiment [1] (Homo sapiens, MV-3, 120 h); 2.4 µM in experiment [4]; 2.42 µM in experiment [5] (Homo sapiens, T-cell, 120 h). Besides, the IC50 in experiment [2] was 3.31 µM; in experiment [3], 0.658 µM.
Regarding `N[C@H]1C[S+]([O-])c2cc(F)c(-c3noc(N4CCOC5CC54)n3)cc2N(Cc2ccc(Cl)cc2)C1=O` (single isomer, unassigned; epimer a) [Example 207], the Emax in experiment [1] (Homo sapiens, MV-3, 120 h) is 90%. Moreover, the EC50 in experiment [1] (Homo sapiens, MV-3, 120 h) stood at 0.16 µM; in experiment [4], 4.38 µM; in experiment [5], 1.86 µM. For the same molecule, the IC50 in experiment [2] is > 62.5 µM; in experiment [3], 0.193 µM. For the same molecule, in experiment [5], the “Emax proliferation (% activation)” value is listed as 280 % activation.
In the case of `CC(C)(C)n1nnc(-c2cc3c(cc2F)S(=O)(=O)C[C@H](NC(=O)CN)C(=O)N3Cc2ccc(Cl)cc2)n1` [Example 29, 2-amino-N-[(3R)-7-(2-tert-butyltetrazol-5-yl)-5-[(4-chlorophenyl)methyl]-8-fluoro-1,1,4-trioxo-2,3-dihydro-1lambda6,5-benzothiazepin-3-yl]acetamide], the Emax in experiment [1] (Homo sapiens, MV-3, 120 h) was found to be 95%; in experiment [5] (Homo sapiens, T-cell, 120 h), 172%. The EC50 in experiment [1] (Homo sapiens, MV-3, 120 h) was found to be 0.037 µM; in experiment [4], 0.855 µM; in experiment [5] (Homo sapiens, T-cell, 120 h), 0.0936 µM. Moreover, the IC50 in experiment [2] was > 62.5 µM; in experiment [3] it was 33.1 µM.
`N[C@H]1CS(=O)(=O)c2ccc(-c3nnc(N4CCOC(C(F)(F)F)C4)o3)cc2N(Cc2ccc(Cl)cc2)C1=O` (stereo partly drawn) [Example 412, (3R)-3-amino-5-[(4-chlorophenyl)methyl]-1,1-dioxo-7-[5-[2-(trifluoromethyl)morpholin-4-yl]-1,3,4-oxadiazol-2-yl]-2,3-dihydro-1λ^6,5-benzothiazepin-4-one]: the Emax in experiment [1] (Homo sapiens, MV-3, 120 h) came out at 92%; in experiment [5] (Homo sapiens, T-cell, 120 h), 126%. For the same molecule, the EC50 in experiment [1] (Homo sapiens, MV-3, 120 h) is 0.14 µM; in experiment [4], 2.36 µM; in experiment [5] (Homo sapiens, T-cell, 120 h) it was 0.176 µM. Moreover, the figures for the IC50 in experiment [2] and in experiment [3] were 2.69 µM and 0.484 µM, respectively.
On to `CC(C)(C)c1nnc(-c2cc3c(cc2F)S(=N)(=O)C[C@H](N)C(=O)N3Cc2ccc(OC(F)(F)F)cc2)o1` (single isomer, unassigned) [Example 518], for which the “MSCP TCB killing MV-3 cells 5 d Emax” value in experiment [1] is given as 78%. Also, the EC50 in experiment [1] amounted to 0.96 µM; in experiment [4], 0.135 µM; in experiment [5], 9.07 µM. Further, the IC50 in experiment [2] is 0.442 µM; in experiment [3] it was 0.639 µM. Besides, the “Emax proliferation (% activation)” value in experiment [5] is reported as 58 % activation.
